# Data: patent US10054582B2, “Compositions and methods for inhibiting HMGB1 activation of melanocytes” (The Procter & Gamble Company, priority 2014, dated 2018)
# Entries after “also recorded” stand apart in the source; their conditions may differ.
# B1: HMGB1: high-mobility group protein B1, SEQ ID NO: 1; recombinant HIS-tagged HMGB1 available from Sigma (protein, listed as Homo sapiens)
# chain: MGKGDPKKPRGKMSSYAFFVQTCREEHKKKHPDASVNFSEFSKKCSERWKTMSAKEKGKFEDMAKADKARYEREMKTYIPPKGETKKKFKDPNAPKRPPSAFFLFCSEYRPKIKGEHPGLSIGDVAKKLGEMWNNTAADDKQPYEKKAAKLKEKYEKDIAAYRAKGKPDAAKKGVVKAEKSKKKKEEEEDEEDEEDEEEEEDEEDEDEEEDDDDE
# modifications: His tag
# notes: recombinant HIS-tagged HMGB1 available from Sigma
# Assays:
# [1] = tested on: HMGB1; test: HMGB1 quantitation from keratinocytes (ELISA, normalized to total protein); type: cell-based; conditions: for change in HMGB1 level relative to the control (in words): keratinocytes contacted with test agent at different concentrations; for HMGB1 (pg)/protein (ug): keratinocytes, vehicle control 54
# Description: Make a 210 mL suspension of keratinocytes at 40,000 cells/mL using suitable media to make a cell suspension. Place 2 mL of the cell suspension into the appropriate number of wells of one or more 12-well plates as needed, using the same velocity and insertion angle for each well as cells are pipetted. Incubate the 12-well plates overnight at 37° C. If the cell plating quality is poor (e.g., cells are not attached to plate or seeding density is uneven), discard and start over. Prepare a dosing media by diluting the test agent to the desired concentration (e.g., from 0.0001% to 10%) in a suitable media (e.g., the same media used to make the cell suspension). […] It is not uncommon for skin care actives to be included in skin care compositions at these levels. Optionally, include sufficient solublizer to provide 0.1% solublizer in the test sample. Add 2 mL of dosing media into each well of a 12-well plate and incubate at 4° C. overnight or until test agent is to be added to the test sample. Place prepared dosing media in the 37° C. incubator for at least 30 minutes, or until pH has equalized. When dosing media is warmed and at proper pH, dose the cells. Incubate the dosed cells at 37° C. for 6 hours. Keratinocytes (or other cells) are plated out in 12 well plates as described above with a seeding density of about 200,000 cells/well and incubated overnight at 37° C. with 5% CO2. The keratinocytes are dosed with a dosing medium containing the test agent and the plates returned to the incubator for another 20 hours. The supernatant for each is collected and the HMGB1 level analyzed using ELISA (USCN Life Sciences) in accordance with manufacturer's instructions. The cells are lysed with Glo Lysis Buffer (Promega) and the protein levels determined using a PIERCE brand bicinchoninic acid protein assay kit per manufacturer's instructions. The values of HMGB1 determined by ELISA and normalized to total protein levels from the cells.
# [2] = tested on: primary human melanocytes; test: Melanocyte dendricity and size measurements (Incucyte ZOOM live cell imaging); type: cell-based
# Source text: The ability of a test agent to inhibit dendricity and cell body growth in melanocytes may be determined by contacting a sample of melanocytes with the test agent, measuring the change in dendricity and/or cell body growth and comparing the measured indicator to a control to determine if the test agent is identified as a skin tone agent. In some instances, it is important for the test sample to include a source of HMGB1. For example, an amount of HMGB1 (e.g., recombinant HIS-tagged HMGB1 available from Sigma) may be included in the test sample (e.g., at a final level of 0.1 μg/mL), or the test sample may include another type of cell, which can be stimulated to produce HMGB1. A control may be obtained by measuring the dendricity and/or cell body size of the melanocytes prior to contact with the test agent, measuring the dendricity and/or cell body size of the melanocytes in a control sample and/or from the dendricity and/or cell body size of melanocytes published in scientific literature, if available.
# Primary human melanocytes (ATCC) are cultured for 2 passages in T150 flasks. For dendricity experiments, melanocytes are plated into 96 well plates (clear) at a density of about 5000 cells/well. The plates are placed into an Incucyte ZOOM® live cell imaging system (Essen Bioscience, Ann Arbor, Mich.) which resides inside a 37° C., 5% CO2 incubator. 20× images are collected every hour using the phase mode. The Neurite Outgrowth Software Package (Essen) is used to measure cell body size, dendrite length, and cell numbers.
# [3] = melanocytes contacted with HMGB1 vs control / before treatment, span of three days
Molecule,change in HMGB1 level relative to the control (in words) [1],HMGB1 (pg)/protein (ug) ([1]; test agent at 0.001%),HMGB1 (pg)/protein (ug) ([1]; test agent at 0.005%),HMGB1 (pg)/protein (ug) ([1]; test agent at 0.02%),"cell body size of melanocytes [2, 3]","dendricity (dendrite length) of melanocytes [2, 3]",melanocyte proliferation ([2]; primary human melanocytes contacted with HMGB1)
methyl hydroxycinnamic acid [ME-HCA],significantly reduced HMGB1 levels relative to the control,33 pg/µg,28 pg/µg,4 pg/µg,–,–,–
hydroxycinnamic acid [HCA],significantly reduced HMGB1 levels relative to the control,29 pg/µg,6 pg/µg,2 pg/µg,–,–,–
B1,–,–,–,–,significantly larger cell body size relative to the control; also recorded: increased dendricity and cell body size,significantly longer dendrites relative to the control; also recorded: increased dendricity,without enhancing melanocyte proliferation
